Test results from patent publication US20160138113A1, “METHODS AND COMPOSITIONS FOR THE DIAGNOSIS, PROGNOSIS AND TREATMENT OF BRAIN METASTASIS” (MEMORIAL SLOAN-KETTERING CANCER CENTER, priority 2013, published 2016).

Tested on: CTSS
Experiment: shRNA-mediated CTSS knockdown in Br-M cells (qPCR, western blot)
Type: cell-based, human
Text: Five shRNA sequences targeting CTSS were obtained from the RNAi Codex and RNAi Consortium. shRNA sequences were inserted into the targeting hairpin sequence for the pRetroSuper vector. Correct insertion into the vector was verified by digestion and sequencing of the vector. Plasmids with the correct shRNA targeting sequence were transfected into H29 viral packaging cells. Viral particles were concentrated from the H29 cell supernatant, added to the target cells in the presence of polybrene and cells were selected with puromycin. One of the […] shRNAs (CTSS shRNA: GATAAAGTTTGCTAAGTAA—TTACTTAGCAAACTTTATC) was used for subsequent experiments to target CTSS with 90% KD efficiency. A non-targeting shRNA [CGCCATAAATATAACTTTA—TAAAGTTATATTTATGGCG] was used as control.
RNA was isolated with Trizol, DNase treated, and 0.2 μg of RNA was used for cDNA synthesis. Details about the Taqman assays can be found in Table 4. […]
Conditioned media (CM) from Br-M cell lines was generated by incubating confluent cell layers in serum-free DMEM media for 24 hours. […] Protein was quantified using the BCA assay (Pierce). […] Membranes were probed with antibodies as indicated in Table 5 and detected using the appropriate HRP-conjugated secondary antibodies using chemoluminescence detection (Millipore). Bands from western blots were quantified in the dynamic range using the Gel analysis module in ImageJ software.

**Q.** How did the “CTSS KD efficiency” value turn out when “CTSS shRNA: shRNA targeting CTSS: GATAAAGTTTGCTAAGTAA—TTACTTAGCAAACTTTATC, in pRetroSuper vector (loop; in pRetroSuper vector)” was run?
**A.** 90%
